Reference: publication PMC6599640 (Pharmaceutical research, 2018)
Like-named read-outs stand apart in the source and are kept apart here.

Experiments:
[1] = in vitro; conditions: human, Caco-2
[2] = MTT viability assay on SMI microtissues after drug exposure; conditions: human, SMI (small intestinal) microtissues
[3] = system: Caco-2 cell monolayers; conditions: Table VI; 10 μM, 2 h
[4] = molecular target: BCRP (Homo sapiens, UniProt Q9UNQ0); experiment: in vitro
[5] = molecular target: P-gp (Homo sapiens, UniProt P08183); experiment: in vitro
[6] = system: SMI microtissues; experiment: Drug permeability across SMI microtissues; conditions: for Efflux: Table VIII, 10 μM, 2 h
[7] = cited from earlier work
[8] = Drug permeability across SMI microtissues; conditions: human, A-B Papp, Table VIII, 10 μM, 2 h, n = 3
[9] = in vitro; conditions: human
[10] = system: SMI microtissues

Sequence of P-gp (P08183 whole entry): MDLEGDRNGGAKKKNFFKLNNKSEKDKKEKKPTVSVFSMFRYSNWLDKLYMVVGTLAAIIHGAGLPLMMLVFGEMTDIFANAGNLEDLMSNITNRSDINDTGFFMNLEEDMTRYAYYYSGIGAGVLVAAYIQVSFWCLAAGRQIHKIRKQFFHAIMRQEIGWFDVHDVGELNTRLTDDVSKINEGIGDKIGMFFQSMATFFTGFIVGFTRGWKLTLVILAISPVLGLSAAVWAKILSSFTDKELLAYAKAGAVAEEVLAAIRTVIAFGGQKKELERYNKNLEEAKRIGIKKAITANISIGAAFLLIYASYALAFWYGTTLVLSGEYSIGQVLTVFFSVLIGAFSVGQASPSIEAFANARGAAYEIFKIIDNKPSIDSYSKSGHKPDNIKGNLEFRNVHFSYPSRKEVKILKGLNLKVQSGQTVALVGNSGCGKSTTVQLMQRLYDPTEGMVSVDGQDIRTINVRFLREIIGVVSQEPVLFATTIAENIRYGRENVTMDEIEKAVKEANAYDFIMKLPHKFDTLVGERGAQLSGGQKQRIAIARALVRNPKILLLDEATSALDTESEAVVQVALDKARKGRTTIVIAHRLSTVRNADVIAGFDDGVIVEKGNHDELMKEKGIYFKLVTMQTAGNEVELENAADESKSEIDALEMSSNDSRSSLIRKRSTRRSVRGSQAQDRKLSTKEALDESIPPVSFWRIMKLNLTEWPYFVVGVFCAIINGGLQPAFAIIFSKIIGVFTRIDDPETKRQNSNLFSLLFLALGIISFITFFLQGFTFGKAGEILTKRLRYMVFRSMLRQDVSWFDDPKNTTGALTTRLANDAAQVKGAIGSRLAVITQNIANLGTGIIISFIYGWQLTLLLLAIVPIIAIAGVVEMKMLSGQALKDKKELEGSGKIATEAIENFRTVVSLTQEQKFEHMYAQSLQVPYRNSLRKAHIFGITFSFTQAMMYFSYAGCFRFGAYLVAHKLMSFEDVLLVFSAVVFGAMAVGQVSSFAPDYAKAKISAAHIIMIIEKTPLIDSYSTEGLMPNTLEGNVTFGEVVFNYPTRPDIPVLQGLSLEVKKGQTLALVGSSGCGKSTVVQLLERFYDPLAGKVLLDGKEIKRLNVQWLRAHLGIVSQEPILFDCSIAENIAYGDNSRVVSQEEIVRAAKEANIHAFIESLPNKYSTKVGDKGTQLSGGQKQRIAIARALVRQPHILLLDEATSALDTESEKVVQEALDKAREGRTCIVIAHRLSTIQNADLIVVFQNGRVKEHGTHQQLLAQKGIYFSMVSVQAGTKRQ
Sequence of BCRP (Q9UNQ0 whole entry): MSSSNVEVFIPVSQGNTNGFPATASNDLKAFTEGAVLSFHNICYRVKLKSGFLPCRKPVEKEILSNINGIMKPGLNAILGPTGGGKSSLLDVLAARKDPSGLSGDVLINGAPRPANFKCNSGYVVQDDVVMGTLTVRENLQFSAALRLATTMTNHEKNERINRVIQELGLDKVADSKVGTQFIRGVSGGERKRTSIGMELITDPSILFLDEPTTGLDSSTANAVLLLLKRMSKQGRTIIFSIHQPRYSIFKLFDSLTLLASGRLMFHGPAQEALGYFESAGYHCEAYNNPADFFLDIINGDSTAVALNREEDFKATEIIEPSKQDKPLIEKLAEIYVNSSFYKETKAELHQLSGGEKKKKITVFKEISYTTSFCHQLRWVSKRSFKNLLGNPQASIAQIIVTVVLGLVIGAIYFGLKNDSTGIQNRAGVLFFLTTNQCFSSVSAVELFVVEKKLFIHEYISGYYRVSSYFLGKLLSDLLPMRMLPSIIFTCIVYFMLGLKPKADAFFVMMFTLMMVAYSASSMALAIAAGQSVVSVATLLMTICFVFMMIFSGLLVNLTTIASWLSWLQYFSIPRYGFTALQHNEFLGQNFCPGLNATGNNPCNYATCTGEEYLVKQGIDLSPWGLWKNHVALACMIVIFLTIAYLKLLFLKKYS

SMILES: CC[C@H]1OC(=O)[C@H](C)[C@@H](O[C@H]2C[C@@](C)(OC)[C@@H](O)[C@H](C)O2)[C@H](C)[C@@H](O[C@@H]2O[C@H](C)C[C@H](N(C)C)[C@H]2O)[C@](C)(O)C[C@@H](C)C(=O)[C@H](C)[C@@H](O)[C@]1(C)O [Erythromycin]
- Papp at 2 h, 10 μM [1]: 0.2 ×10⁻⁶ cm/s

SMILES: CN/C(=N/CCSCc1nc[nH]c1C)NC#N [Cimetidine]
- viability at 96 h, 1 µM [2]: 109%
- viability at 96 h, 10 µM [2]: 103%
- viability at 96 h, 100 µM [2]: 96.1%
- Papp at 2 h, 10 μM [1]: 2.7 ×10⁻⁶ cm/s

SMILES: CC(C)NCC(O)COc1cccc2ccccc12 (centres unmarked) [Propranolol]
- Caco-2 mean A- > B Papp [3]: 12.9 10^−6 cm s^−1

SMILES: O=C1CN(/N=C/c2ccc([N+](=O)[O-])o2)C(=O)N1 [Nitrofurantoin]
- Papp B→A at 2 h, 10 μM [4]: 28.4 ± 3.3 ×10⁻⁶ cm/s
- Papp at 2 h, 10 μM [4]: 2.7 ± 1.6 ×10⁻⁶ cm/s
- Papp B→A at 2 h, 10 μM ([4]; with Novobiocin 50 uM): 18.9 ± 1 ×10⁻⁶ cm/s
- Papp at 2 h, 10 μM ([4]; with Novobiocin 50 uM): 4.7 ± 0.65 ×10⁻⁶ cm/s

SMILES: CN(C)C(=O)C(CCN1CCC(O)(c2ccc(Cl)cc2)CC1)(c1ccccc1)c1ccccc1 [Loperamide]
- efflux ratio at 2 h, 10 μM ([5]; Efflux ratio, with inhibitor Verapamil 100 uM, substrate 10 μM, 2 hr): 6.5
- Papp at 2 h, 10 μM ([5]; Mean A- > B Papp, No Inhibitor, substrate 10 μM, 2 hr, n = 3): 0.9 ×10⁻⁶ cm/s
- Papp B→A at 2 h, 10 μM ([5]; Mean B- > A Papp, No Inhibitor, substrate 10 μM, 2 hr, n = 3): 15.5 ± 4.6 ×10⁻⁶ cm/s

SMILES: CNC(=C[N+](=O)[O-])NCCSCc1ccc(CN(C)C)o1 [Ranitidine]
- viability at 96 h, 1 µM [2]: 102%
- viability at 96 h, 10 µM [2]: 98.1%
- viability at 96 h, 100 µM [2]: 96%
- Papp A→B at 2 h, 10 μM [1]: 0.2 ×10⁻⁶ cm/s
- Papp at 2 h, 10 μM [1]: 0.1 ×10⁻⁶ cm/s
- Papp A- > B SMI microtissues ([6]; Table V, mean of n = 2 SMI microtissue lots): 2.2 ± 0.5 10^−6 cm^s−1
- Fraction absorbed in humans (class) ([7]; Table IX, class in brackets, no reference given): Moderate

SMILES: Cc1ncc2n1-c1ccc(Cl)cc1C(c1ccccc1F)=NC2 [Midazolam]
- Papp A→B at 2 h, 10 μM ([8]; Transport A-B): 14.4 ×10⁻⁶ cm/s
- Papp A→B at 2 h, 10 μM ([8]; line Transport B-A): 13.7 ×10⁻⁶ cm/s
- Efflux [6]: 0.95

SMILES: Nc1nc2c(ncn2COCCO)c(=O)[nH]1 [Acyclovir]
- viability at 96 h, 1 µM [2]: 104%
- viability at 96 h, 10 µM [2]: 97.6%
- viability at 96 h, 100 µM [2]: 91.1%
- Papp at 2 h, 10 μM [1]: 0.9 ×10⁻⁶ cm/s

SMILES: CCOC(=O)[C@H](CCc1ccccc1)N[C@@H](C)C(=O)N1CCC[C@H]1C(=O)O [Enalapril]
- viability at 96 h, 1 µM [2]: 109%
- viability at 96 h, 10 µM [2]: 105%
- viability at 96 h, 100 µM [2]: 99%
- Papp at 2 h, 10 μM [1]: 0.2 ×10⁻⁶ cm/s

SMILES: C=C[C@H]1C[N@@]2CC[C@H]1C[C@@H]2[C@@H](O)c1ccnc2ccc(OC)cc12 [Quinidine]
- viability at 96 h, 1 µM [2]: 99.4%
- viability at 96 h, 10 µM [2]: 100%
- viability at 96 h, 100 µM [2]: 99.3%
- Fraction absorbed (%) in humans ([7]; in vivo): 80%

SMILES: CC(=O)CC(c1ccccc1)c1c(O)c2ccccc2oc1=O (centres unmarked) [Warfarin]
- Papp at 2 h, 10 μM ([9]; Lot #1 Mean A- > B Papp): 48.5 ± 8.18 ×10⁻⁶ cm/s
- Papp at 2 h, 10 μM ([9]; Lot #2 Mean A- > B Papp): 24.3 ± 0.86 ×10⁻⁶ cm/s
- Papp at 2 h, 10 μM ([9]; Lot #3 Mean A- > B Papp): 19.9 ± 3.45 ×10⁻⁶ cm/s
- Papp at 2 h, 10 μM ([9]; SMI mean A- > B Papp): 36.7 ± 16.8 ×10⁻⁶ cm/s
- Papp A- > B SMI microtissues [10]: 22.3 ± 0.5 10^−6 cm^s−1
- Papp A→B at 2 h, 10 μM [1]: 27.8 ± 7.6 ×10⁻⁶ cm/s
- Papp at 2 h, 10 μM [1]: 28.6 ×10⁻⁶ cm/s

SMILES: CC(C)c1nc(N(C)S(C)(=O)=O)nc(-c2ccc(F)cc2)c1/C=C/[C@@H](O)C[C@@H](O)CC(=O)O [Rosuvastatin]
- Papp B→A at 2 h, 10 μM [5]: 9.4 ± 1 ×10⁻⁶ cm/s
- Papp at 2 h, 10 μM [5]: 0.5 ± 0.07 ×10⁻⁶ cm/s
- Papp B→A at 2 h, 10 μM ([5]; with Elacider 100 uM): 5.3 ± 0.3 ×10⁻⁶ cm/s

SMILES: CCCC(=O)Nc1ccc(OCC(O)CNC(C)C)c(C(C)=O)c1 (centres unmarked) [Acebutolol]
- viability at 96 h, 1 µM [2]: 98.5%
- viability at 96 h, 10 µM [2]: 97.5%
- Papp at 2 h, 10 μM [1]: 0.4 ×10⁻⁶ cm/s

SMILES: C[C@H]1O[C@@H](O[C@H]2[C@@H](O)C[C@H](O[C@H]3[C@@H](O)C[C@H](O[C@H]4CC[C@@]5(C)[C@H](CC[C@@H]6[C@@H]5C[C@@H](O)[C@]5(C)[C@@H](C7=CC(=O)OC7)CC[C@]65O)C4)O[C@@H]3C)O[C@@H]2C)C[C@H](O)[C@@H]1O [Digoxin]
- Papp B→A at 2 h, 10 μM [5]: 29 ± 5 ×10⁻⁶ cm/s
- Papp at 2 h, 10 μM [5]: 12.6 ± 0.74 ×10⁻⁶ cm/s
- efflux ratio at 2 h, 10 μM [5]: 2.3
- Papp at 2 h, 10 μM ([5]; with Verapamil 100 uM): 16 ± 1.75 ×10⁻⁶ cm/s
- efflux ratio at 2 h, 10 μM ([5]; with Verapamil 100 uM): 1.4

SMILES: O=C1NC(c2ccccc2)(c2ccccc2)C(=O)N1COP(=O)(O)O [Fosphenytoin]
- Papp A→B at 2 h, 10 μM ([8]; Transport A-B): 12.3 ×10⁻⁶ cm/s
- Papp A→B at 2 h, 10 μM ([8]; line Transport B-A): 3.77 ×10⁻⁶ cm/s
- Efflux [6]: 0.31
